According to patent EP0187619A2, “1,3-Disubstituted tetrahydropyridines” (priority 1985, dated 1986):

Tests used:
[1] = Step-down Passive Avoidance Test (Mondadori and Waser): memory improvement; format: in vivo; conditions: for Gedächtnisverbesserung: significance by Mann-Whitney U test; for Dosis, um die gedächtnisverbessernde Wirkung von 0,1 mg/kg i.p. von 1-[2-(Indol-3-yl)ethyl]-1,2,5,6,-tetrahydro-pyridin-3-carbonsauremethylester zu erzielen / Dosis relativ zu 1-[2-(Indol-3-yl)ethyl]-1,2,5,6,-tetrahydro-pyridin-3-carbonsauremethylester für gleiche gedächtnisverbessernde Wirkung: i.p.; for Dosis relativ zu 1-[2-(Indol-3-yl)ethyl]-1,2,5,6,-tetrahydro-pyridin-3-carbonsauremethylester für gleiche gedächtnisverbessernde Wirkung: 10 mg/kg versus 0,1 mg/kg
Procedure: Insbesondere zeigen die Verbindungen der Formel I eine starke gedächtnisverbessernde Wirkung im Step-down Passive Avoidance Test nach Mondadori und Waser, Psychopharmacology 63, 297-300 (1979). Die Substanzen sind wirksam bei intraperitonealer Gabe 30 Minuten vor dem Lernversuch (wirksame Dosen 0,1, 1, 10 mg/kg). Eine deutliche Wirkung war auch feststellbar bei peroraler Applikation 60 Minuten vor dem Lernversuch (wirksame Dosen 0,1, 1, 10 mg/kg) sowie bei intraperitonealer Applikation unmittelbar nach dem Lernversuch (wirksame Dosen 0,1, 1, 10 mg/kg). […] Daraus ergibt sich, dass, um die gedächtnisverbessernde Wirkung von 0,1 mg/kg i.p. von 1-[2-(Indol-3-yl)ethyl]-1,2,5,6,-tetrahydro-pyridin-3-carbonsauremethylester zu erzielen, 10 mg/kg i.p., d.h. die 100-fache Dosis eines Isomeren A, B und C benötigt werden. Die Signifikanzangaben beziehen sich, ebenso wie im vorhergehenden Absatz, auf den U-Test von Mann und Whitney.

[2] = system: amnesiogene Wirkung eines Elektroschocks; test: Two-compartment test: protection against electroshock-induced amnesia; format: in vivo, Maus; conditions: for antiamnesiogener Effekt: significance by Mann-Whitney U test
Procedure: So vermindern sie an der Maus in Dosen ab etwa 0,1 mg/kg i.p. sowie p.o. die amnesiogene Wirkung eines Elektroschocks in mindestens gleichem Ausmass wie nach Verabfolgung einer nootrop wirksamen Dosis von Piracetam (100 mg/kg i.p.). Zum Nachweis der nootropen Wirkung kann beispielsweise der Two-Compartment-Test herangezogen werden.
Als Literatur über pharmakologische Modelle dieser Art seien z.B. genannt: S.J. Sara und D. Lefevre, Paychopharmacologia 25, 32-40 (1972), Hypoxia-induced amnesia in one-trial learning and pharmacological protection by piracetam. Boggan, W.O., und Schlesinger, K., in Behavioral Biology 12, 127-134 (1974).

| SMILES | Gedächtnisverbesserung ([1]; 0,1 mg/kg i.p.) | Gedächtnisverbesserung ([1]; 10 mg/kg i.p.) | Gedächtnisverbesserung ([1]; 1,0 mg/kg i.p.) | antiamnesiogener Effekt ([2]; 0,1 mg/kg i.p.) | antiamnesiogener Effekt ([2]; 1,0 mg/kg i.p.) | Dosis, um die gedächtnisverbessernde Wirkung von 0,1 mg/kg i.p. von 1-[2-(Indol-3-yl)ethyl]-1,2,5,6,-tetrahydro-pyridin-3-carbonsauremethylester zu erzielen [1] [mg/kg] | Dosis relativ zu 1-[2-(Indol-3-yl)ethyl]-1,2,5,6,-tetrahydro-pyridin-3-carbonsauremethylester für gleiche gedächtnisverbessernde Wirkung [1] | antiamnesiogener Effekt ([2]; 10 mg/kg i.p.) | nootrop wirksame Dosis ([2]; Maus, i.p., reference) [mg/kg] |
| --- | --- | --- | --- | --- | --- | --- | --- | --- | --- |
| COC(=O)C1=CCCN(CCc2c[nH]c3ccccc23)C1 [1-[2-(Indol-3-yl)ethyl]-1,2,5,6-tetrahydro-pyridin-3-carbonsäuremethylester] | signifikante (p<0,05) | hochsignifikante (p<0,01) | signifikante (p<0,05) | hochsignifikanten (p<0,01) antiamnesiogenen Effekt | hochsignifikanten (p<0,01) antiamnesiogenen Effekt | – | – | – | – |
| COC(=O)C1=CCN(CCc2c[nH]c3ccccc23)CC1 [Isomere C, 1-[2-(Indol-3-yl)ethyl]-1,2,5,6-tetrahydro-pyridin-4-carbonsäuremethylester] | keinen | signifikanten (p<0,05) Effekt | keinen | keine signifikante antiamnesiogene Wirkung | keine signifikante antiamnesiogene Wirkung | 10 | 100 -fache Dosis | keine signifikante antiamnesiogene Wirkung | – |
| CCOC(=O)C1=CCCN(Cc2c[nH]c3ccccc23)C1 [Isomere B, 1-(Indol-3-yl)methyl-l,2,5,6-tetrahydro-pyridin-3-carbonsäureethylester] | keinen | signifikanten (p<0,05) Effekt | keinen | ähnlichen, jedoch weniger signifikanten (p<0,05) Effekt | ähnlichen, jedoch weniger signifikanten (p<0,05) Effekt | 10 | 100 -fache Dosis | ähnlichen, jedoch weniger signifikanten (p<0,05) Effekt | – |
| COC(=O)C1=CN(CCc2c[nH]c3ccccc23)CCC1 [Isomere A, 1-(2-(Indol-3-yl)-ethyl]-1,4,5,6-tetrahydro-pyridin-3-carbonsäuremethylester] | keinen | signifikanten (p<0,05) Effekt | keinen | keinen signifikanten | gewissen (nur einseitig signifikanten) | 10 | 100 -fache Dosis | keinen signifikanten | – |
| NC(=O)CN1CCCC1=O [Piracetam] | – | – | – | – | – | – | – | – | 100 |
